For orientation: pIC50 means the negative decadic logarithm of the IC50, by convention in mol/L. A lower pIC50 goes with a high IC50.

pIC50: −log10 of the molar value. Active and inactive are the calls of the source. The rule behind the calls is not given here. Bounds are passed on as bounds.

Among the data in ChEMBL document CHEMBL1150429, “Synthesis and biological evaluation of D-amino acid oxidase inhibitors” (J Med Chem, 2008) are IC50 and Activity values, retold here.

The target of the first experiment is D-amino-acid oxidase (Sus scrofa, UniProt P00371). The experiment can be described thus: Inhibition of pig D-amino acid oxidase.
Sequence of D-amino-acid oxidase (P00371 whole entry): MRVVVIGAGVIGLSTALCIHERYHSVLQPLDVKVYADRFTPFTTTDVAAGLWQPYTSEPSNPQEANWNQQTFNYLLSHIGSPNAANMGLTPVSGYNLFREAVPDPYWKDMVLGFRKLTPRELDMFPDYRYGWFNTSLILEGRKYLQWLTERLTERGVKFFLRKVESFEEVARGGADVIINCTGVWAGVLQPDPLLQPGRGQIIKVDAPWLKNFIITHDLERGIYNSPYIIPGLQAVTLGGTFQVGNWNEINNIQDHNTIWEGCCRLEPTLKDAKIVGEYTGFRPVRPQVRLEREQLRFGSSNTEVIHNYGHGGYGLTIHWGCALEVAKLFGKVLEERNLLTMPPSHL
The molecule `Cc1c(C[C@H](N)C(=O)O)o[nH]c1=O` showed a pIC50 of under 4.00.

As to `Oc1noc2c(F)c(C(F)(F)F)ccc12`, the pIC50 is under 4.00. The same measure, in the same setting: the figure for `Oc1noc2ccccc12` is 5.73. The same measure, in the same setting: in the case of `Oc1noc2ccc(Br)cc12` it was 6.22. Same read-out and setting: the figure for `Oc1noc2cccc(F)c12` is 5.11; for `Cc1cccc2c(O)noc12` it is under 4.00; for `COc1ccc2c(O)noc2c1` it is 5.59. Molecule `O=[N+]([O-])c1ccc2c(O)noc2c1` had a pIC50 of 6.14. The molecule `Cc1ccc2c(O)noc2c1` showed a pIC50 of 6.57. On the same count and under the same terms, in the case of `Oc1noc2cc(Cl)ccc12` it was 6.73; in that of `O=c1[nH]oc2ccc([N+](=O)[O-])cc12`, 5.53; in that of `Oc1noc2ccc(I)cc12`, 5.82. The same measure, in the same setting: in the case of `Oc1noc2c(F)cccc12` it was 4.64. On the same count and under the same terms, in the case of `O=c1[nH]oc2cccc(C(F)(F)F)c12` it was under 4.00; in that of `O=c1[nH]oc2cc(C(F)(F)F)ccc12`, 5.30; in that of `COc1noc2cc(Cl)ccc12`, under 4.00.

Take `NCc1cc(=O)[nH]o1` [MUSCIMOL]: the pIC50 was under 4.00. `Oc1noc2cc(F)ccc12` gave a pIC50 of 6.35.

`CCOc1ccc2c(O)noc2c1` had a pIC50 of under 4.00.

Another experiment deals with Rattus norvegicus. Briefly: Increase in D-serine level in Sprague-Dawley rat plasma at 30 mg/kg, po coadministered with D-serine. The experiment is classed as functional, organism-based. On the set-up: dose 30 mg/kg.
As to `Oc1noc2cc(Cl)ccc12`, the outcome was Active.

In the next experiment the test system is Rattus norvegicus. Briefly: Increase in D-serine level in Sprague-Dawley rat prefrontal cortex at 30 mg/kg, po coadministered with D-serine. The experiment is classed as functional.
In the case of `Oc1noc2cc(Cl)ccc12`, the Activity was over 60%.

For another experiment, the system named is Rattus norvegicus. Briefly: Increase in D-serine level in Sprague-Dawley rat prefrontal cortex at 30 mg/kg, po. It is filed as functional, organism-based. On the set-up: dose 30 mg/kg.
Regarding `Oc1noc2cc(Cl)ccc12`, the result was inactive.
